In series [1] the test system is human KCNQ5 (hKCNQ5) potassium channel, SEQ ID No 2. In words: Two-electrode voltage-clamp of KCNQ5 currents in Xenopus oocytes injected with cRNA. Format: cell-based. The following applies: 3s depolarizing step from -100 mV to 0 mV. On the technique in general: In two-electrode clamp one electrode senses voltage and the other passes current.
Description: Xenopus laevis oocytes were obtained from tricaine anaesthetized animals. Ovaries were collagenase treated (1 mg/ 1 ml, Worthington, type II) in OR 2 solution (NaCl 82.5 mM, KCl 2 mM, MgCl2 1 mM, HEPES 5 mM, pH 7.4) for 120 min and subsequently stored in recording solution ND-96 (NaCl 96 mM, KCI 2 mM, CaCl2 1.8 mM, MgCl2 1 mM, HEPES 5 mM, pH 7.4) with additional NaPyruvate (275 mg/l), Theophylline (90 mg/l) and Gentamycin (50 mg/l) at 18°C. […] Standard two-electrode voltage-clamp recordings were performed at room temperature with a Turbo Tec 10CD (NPI) amplifier, an ITC-16 interface combined with Pulse software (HEKA) and Origin for data aquisition on Pentium 11 PC. Macroscopic currents were recorded 2-4 days after injection. All fitting procedures were based on the simplex algorithm. Student's t test was used to test for statistical significance, which was assumed if P<0.05 and indicated by *.
However, it can be described by a biexponential function. […] KCNQ5 deactivation was well fitted to a second order exponential function. The two components of deactivation were determined at a repolarizing voltage of -100 mV following a 3s depolarizing step to +40 mV.
Series [2] deals with KCNQ1. Particulars: cited from earlier work.
The subject of series [3] is KCNQ2. The following applies: at 10µM; cited from earlier work.
Series [4] relates to KCNQ3. Particulars: at 10µM; cited from earlier work.

`CCS(=O)(=O)N(C)[C@H]1c2cc(C#N)ccc2OC(C)(C)[C@@H]1O` (racemic) [chromanol 293B]: the “block of KCNQ5 currents” value in series [1] (at 100 µM) is 45%. Further, the “block of KCNQ1” value in series [2] (at 100 µM) is 80%.

In general, IC50 refers to the midpoint of a concentration-inhibition curve. As for `CCCCCCC[N+](CC)(CC)CCCCc1ccc(Cl)cc1` [Clofilium], the “reduction of KCNQ5 current” value in series [1] (at 30 µM) was determined as 40%. For the same compound, the “inhibition of KCNQ2” value in series [3] is “little inhibition”. Further, the “inhibition of KCNQ3” value in series [4] is 30%. The half-maximal inhibitory concentration (IC50) in series [2] (read-out: IC50 (block of KCNQ1)) was below 10 µM.

The values are drawn from EP1268545B1, “POTASSIUM CHANNEL PROTEIN KCNQ5, A TARGET FOR DISEASES OF CENTRAL NERVOUS SYSTEM AND CARDIOVASCULAR SYSTEM” (priority 2000, dated 2001).
